Laboratory results taken from publication PMC11988556, “Combined Cytotoxic Effects of the Fungicide Azoxystrobin and Common Food-Contaminating Mycotoxins” (Foods, 2025).

Legend:
HepG2 cells [1] = test: resazurin reduction cytotoxicity assay, with CI-isobologram analysis of mixtures; format: cell-based, human
HepG2 cells [2] = test: MTT cytotoxicity assay, with CI-isobologram analysis of mixtures; format: cell-based, human; settings: for reduction of cell viability at the higher concentration tested: MTT, highest concentration of the combination experiment
[3] = HepG2, 24 h, resazurin, highest concentration of the combination experiment
[4] = HepG2, 24 h exposure, resazurin assay, spread in brackets, read-out: IC50
[5] = resazurin method, HepG2, 24 h, median-effect equation, read-out: Dm (median-effect concentration)
[6] = IC50 from MTT individual cytotoxicity experiments, used to set combination ratios, 24 h, read-out: IC50 Concentration
[7] = MTT method, HepG2, 24 h, median-effect equation, read-out: Dm (median-effect concentration)
[8] = read-out: Dm (median-effect concentration)

Structure (SMILES) | reduction of cell viability at the higher concentration tested (HepG2 cells [1]; [3]) [%] | IC50 (HepG2 cells [1]; Homo sapiens, HepG2, 24 h exposure, resazurin assay, spread in brackets, read-out: IC50) [µM] | IC50 (HepG2 cells [1]; Homo sapiens, resazurin method, HepG2, 24 h, median-effect equation, read-out: Dm (median-effect concentration)) [µM] | reduction of cell viability at the higher concentration tested (HepG2 cells [2]; HepG2, 24 h) [%] | IC50 (HepG2 cells [2]; Homo sapiens, HepG2, IC50 from MTT individual cytotoxicity experiments, used to set combination ratios, 24 h, read-out: IC50 Concentration) [µM] | IC50 (HepG2 cells [2]; Homo sapiens, MTT method, HepG2, 24 h, median-effect equation, read-out: Dm (median-effect concentration)) [µM] | IC50 (HepG2 cells [1]; [4]) [µM] | IC50 (HepG2 cells [1]; [5]) [µM] | IC50 (HepG2 cells [2]; [6]) [µM] | IC50 (HepG2 cells [2]; [7]) [µM] | reduction of cell viability at the higher concentration tested (HepG2 cells [1]) [%] | IC50 (HepG2 cells [1]; [8]) [µM] | IC50 (HepG2 cells [1]; read-out: IC50) [µM] | IC50 (HepG2 cells [2]; [8]) [µM] | IC50 (HepG2 cells [2]; read-out: IC50 Concentration) [µM]
C[C@@H]1Cc2c(Cl)cc(C(=O)N[C@@H](Cc3ccccc3)C(=O)O)c(O)c2C(=O)O1 [OTA, ochratoxin A] | 44 | 147 | 87.6 | 59 | 195 | 57.1 |  |  |  |  |  |  |  |  | 
CO/C=C(/C(=O)OC)c1ccccc1Oc1cc(Oc2ccccc2C#N)ncn1 [AZX, azoxystrobin] | 27 |  |  | 43 |  |  | 231 | 638 | 206 | 284 |  |  |  |  | 
CC1=C[C@H]2O[C@@H]3[C@H](O)C[C@](C)([C@@]2(CO)[C@H](O)C1=O)[C@]31CO1 [DON, deoxynivalenol] | 59 |  |  | 69 |  |  | 6.61 | 5.33 | 9.39 | 2.74 |  |  |  |  | 
CC(=O)OC[C@]12C[C@H](OC(=O)CC(C)C)C(C)=C[C@H]1O[C@@H]1[C@H](O)[C@@H](OC(C)=O)[C@@]2(C)[C@]12CO2 [T2, T-2 toxin] |  |  |  |  |  |  |  |  |  |  | 40 | 0.1 | 0.051 | 0.06 | 0.059
